Results taken from PMC8131363 (Scientific Reports, 2021).

Columns and labels:
hCaSR = biological target: T1, hCaSR (Homo sapiens, UniProt P41180); test: hCaSR transiently expressed in HEK293/natClytin, agonist luminescence assay; format: cell-based; conditions: transiently expressed hCaSR; > 3 mM = maximal response not reached; read-out: hCaSR EC50
T1 construct: expressed in transfected cells; host or cells: HEK293/natClytin (transient, pcDNA6 as delivered by GeneArt)
T1 sequence (P41180 20-1078): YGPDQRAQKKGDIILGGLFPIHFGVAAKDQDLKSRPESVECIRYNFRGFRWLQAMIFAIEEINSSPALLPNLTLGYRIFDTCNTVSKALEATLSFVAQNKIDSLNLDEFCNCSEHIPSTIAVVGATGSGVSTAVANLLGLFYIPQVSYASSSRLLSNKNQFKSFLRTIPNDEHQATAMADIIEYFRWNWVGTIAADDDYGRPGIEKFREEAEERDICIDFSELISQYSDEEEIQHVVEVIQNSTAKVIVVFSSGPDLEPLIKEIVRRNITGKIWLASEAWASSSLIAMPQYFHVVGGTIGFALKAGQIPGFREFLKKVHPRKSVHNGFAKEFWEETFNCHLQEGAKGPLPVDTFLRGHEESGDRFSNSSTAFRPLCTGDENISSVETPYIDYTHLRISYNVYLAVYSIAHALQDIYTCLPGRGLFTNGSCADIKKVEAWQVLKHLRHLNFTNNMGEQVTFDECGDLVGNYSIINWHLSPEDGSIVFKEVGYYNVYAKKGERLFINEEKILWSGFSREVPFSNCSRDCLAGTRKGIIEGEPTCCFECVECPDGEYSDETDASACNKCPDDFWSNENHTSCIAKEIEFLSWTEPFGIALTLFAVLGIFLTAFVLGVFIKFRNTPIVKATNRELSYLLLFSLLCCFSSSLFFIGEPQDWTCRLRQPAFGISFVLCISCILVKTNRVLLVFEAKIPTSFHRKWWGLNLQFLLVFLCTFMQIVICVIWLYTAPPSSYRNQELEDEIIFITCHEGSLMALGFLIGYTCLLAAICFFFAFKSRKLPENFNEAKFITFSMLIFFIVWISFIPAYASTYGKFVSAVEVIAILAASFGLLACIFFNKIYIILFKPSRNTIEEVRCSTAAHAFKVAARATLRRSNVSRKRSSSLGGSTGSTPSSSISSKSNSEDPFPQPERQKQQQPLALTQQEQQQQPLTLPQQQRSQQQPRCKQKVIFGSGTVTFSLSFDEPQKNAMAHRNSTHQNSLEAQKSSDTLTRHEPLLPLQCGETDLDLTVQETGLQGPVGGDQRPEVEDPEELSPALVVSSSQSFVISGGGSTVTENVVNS
Protocol: The coding sequence of the Felis catus[52] and Homo sapiens[53] CaSR gene was synthesised by GeneArt (Thermo Fisher Scientific). The cat coding sequence was excised from the GeneArt construct and inserted in pcDNA3.1 for constitutive and transient expression or pcDNA5/ TO for inducible expression. For the human sequence the pcDNA6 vector as delivered by GeneArt was used without further sub-cloning.
All transient transfections were performed with Lipofectamine 2000 (Invitrogen) according to the manufacturer’s protocol.

human sensory panel = human sensory panel triangle test; format: in vivo; conditions: humans, CaCl2 8 mM, MgCl2 8 mM; for % correct, triangle test in umami mix: GSH 0.65 mM in MSG/IMP/NaCl mix vs mix blank; for % correct, triangle test in water: GSH 0.65 mM in mineral water vs blank
Protocol: All solutions were prepared using a commercial mineral water, Highland Spring (Highland Spring group, Blackford, UK) previously tested on our taste sensory panel and found to have the lowest level of inherent taste, thus being the least disruptive to taste tests. All taste-active substances were food-grade or of the highest available purity.
For tests with CaCl2, MgCl2, and GSH, each compound was dissolved directly in water, at 8 mM, 8 mM and 0.65 mM, respectively. Each compound was also tested in a mixture of umami and salty compounds, previously described in kokumi sensory evaluation, composed of 0.02% MSG, 0.02% IMP and 0.07% NaCl.
The human sensory panel experimental protocols were approved by the Waltham Animal Welfare and Ethical Review Board and all methods were carried-out in accordance with all local regulations and guidelines. Informed consent was obtained from all subjects, and all participants were over the legal age of consent. All assessors used for the tests were validated following the process outlined in ISO 8586:2012(E). Briefly, all assessors were evaluated on their capacity to recognise tastants from blank solutions and successfully identify the basic taste modalities presented. The panellists were also assessed on their ability to correctly rank solutions of a tastant in ascending concentration order. The measures for successful validation of panellists were applied to all who completed the assessment.
For the kokumi tastant tests, six tests in all were completed, two with each CaSR agonist chosen CaCl2, MgCl2, or GSH. The number of participating panellists for each test varied between twenty-four and twenty-five. […] No replicate evaluations were done by the same assessor. For each compound, the assessors were presented with […] separate forced choice triangle tests. In the first test, the compound was dissolved in spring water and compared to a blank of pure spring water, in the second the compound was dissolved into the previously described umami mix[8] and compared to a blank of the umami mix. In each separate test, the panellists were presented with the samples in a randomised order to eliminate potential bias. Panellists were presented either two blanks and a sample or two samples and a blank and asked to identify the sample that was different in the triad. Panellists were asked to give a brief description of why the sample chosen was different. If they were unable to detect a difference, the assessors were instructed to choose a sample at random and specify in the description that they were unable to make a difference between the samples[61].
The data was analysed for statistical significance using a standard methodology described in[61]. For this, the number of correct answers were compared to the number of assessors in each test, at the α-risk level chosen for the test. […] As determined by a one tailed test, the minimum number of panellists required to successfully determine difference between samples was thirteen for the chosen α value.
Initially, a contingency table of the number of correct answers and the number of wrong answers was created for each test. Then, Pearson’s chi-square test was then applied to the resulting table, with the probability of a correct answer at random being 1/ 3, while the probability of a wrong answer was 2/ 3.

EC50 (hCaSR)	SMILES	% correct, triangle test in umami mix (human sensory panel)	% correct, triangle test in water (human sensory panel)
0.8 mM	[Ca+2].[Cl-].[Cl-] [Ca^2+, CaCl2]	36%	56%
> 3 mM	N[C@@H](CCC(=O)N[C@@H](CS)C(=O)NCC(=O)O)C(=O)O [Glutathione]	58.3%	37.5%
3.9 mM	[Cl-].[Cl-].[Mg+2] [Mg^2+, MgCl2]	50%	50%
